Measurements taken from patent US11312718B2, “Formulations of (S)-3-(1-(9H-purin-6-ylamino)ethyl)-8-chloro-2-phenylisoquinolin-1(2H)-one” (Infinity Pharmaceuticals, Inc., priority 2011, dated 2022).

Columns and labels:
[1] = Dynamic vapor sorption (DVS) / moisture sorption analysis; assay type: physicochemical
Procedure: Compounds and polymorphs provided herein can be characterized by moisture sorption analysis. This analysis was performed using a Hiden IGAsorp Moisture Sorption instrument. Moisture sorption experiments were carried out at about 25° C. by performing an adsorption scan from about 40% to about 90% RH in steps of about 10% RH and a desorption scan from about […] to about 0% RH in steps of about −10% RH. A second adsorption scan from about 10% to about 40% RH was performed to determine the moisture uptake from a drying state to the starting humidity. Samples were allowed to equilibrate for about four hours at each point or until an asymptotic weight was reached. After the isothermal sorption scan, samples were dried for about one hour at elevated temperature (about 60° C.) to obtain the dry weight. XRPD analysis on the material following moisture sorption was performed to determine the solid form.
Dynamic vapor sorption (DVS) analysis was performed on polymorph Forms A, B, C, D, and E using the DVS instrument and parameters as described above. […] Hysteresis indicative of hemi-hydrate formation was observed.

[2] = Grinding stability (mortar and pestle); assay type: physicochemical; settings: by hand, 2 and 5 min, XRPD
Procedure: Forms A, C, D, and E were subjected to grinding experiments performed using a mortar and pestle by hand. Samples were lightly grounded for 2 minutes then analyzed by XRPD. Material was then returned to the mortar and pestle and grounded for an additional 3 minutes, for a total of 5 minutes of grinding, and re-analyzed by XRPD.

[3] = Thermal stability (60° C.); settings: held at 60° C. for 10 days
Procedure: (§1) Forms A, B, C, D, and E were held at 60° C. for 10 days followed by analysis by XRPD. In each case, 8 mL vials were charged with approximately 20 mg of material, with the exception of Form B for which 10 mg of material was charged. Samples equilibrated in an oven for 10 days.

[4] = 1 week
Procedure: as §1

B6.Sle1z.Sle3z model = settings: cited from earlier work
[5] = system: leukemic cells from early passage p190 transduced cultures; settings: at about 70 mg/kg twice daily; cited from earlier work

C[C@H](Nc1ncnc2[nH]cnc12)c1cc2cccc(Cl)c2c(=O)n1-c1ccccc1 [Form E, (S)-3-(1-(9H-purin-6-ylamino)ethyl)-8-chloro-2-phenylisoquinolin-1(2H)-one]
DVS ([1]; @ 60% RH): 1.9% @ 60% RH | DVS ([1]; @ 90% RH): 2.2% @ 90% RH | hygroscopicity ([1]; DVS): slightly hygroscopic | moisture uptake at 60% RH ([1]; DVS, about 25° C., 60% RH): 1.9 wt % | moisture uptake at 90% RH ([1]; DVS, about 25° C., 90% RH): 2.2 wt % | Grinding (mortar & pestle) [2]: amorphous | polymorph Form changes by XRPD [3]: No polymorph Form changes were observed | Thermal stability (60° C.) [4]: stable after 1

CO[C@H]1C[C@@H]2CC[C@@H](C)[C@@](O)(O2)C(=O)C(=O)N2CCCC[C@H]2C(=O)O[C@H]([C@H](C)C[C@@H]2CC[C@@H](OCCO)[C@H](OC)C2)CC(=O)[C@H](C)/C=C(\C)[C@@H](O)[C@@H](OC)C(=O)[C@H](C)C[C@H](C)/C=C/C=C/C=C/1C [RAD001]
lupus symptoms (B6.Sle1z.Sle3z model): ameliorate lupus symptoms

Cc1ccc(NC(=O)c2ccc(CN3CCN(C)CC3)cc2)cc1Nc1nccc(-c2cccnc2)n1 [imatinib]
leukemogenesis [5]: delay but not cure leukemogenesis
